Tests used:
anti-CD19 CAR T cells = test: Long-term (12 days) stimulation with anti-idiotype antibody beads: expansion and survival; assay type: cell-based, human; conditions: anti-ID antibody beads
Procedure: CD4+ and CD8+ T cells were isolated by immunoaffinity-based enrichment from leukapheresis samples from human donor subjects. At day 1, isolated CD4+ and CD8+ T cells were mixed 1:1 and stimulated with an anti-CD3/anti-CD28 oligomeric stimulatory reagent generated as described in Example 1 in serum-free media supplemented with recombinant IL-2 (100 IU/mL), recombinant IL-7 (600 IU/mL), and recombinant IL-15 (100 IU/mL) with or without 1 μM of 2-(3-hydroxyphenyl)-9-(2-isopropylphenyl)-8-oxo-8,9-dihydro-7H-purine-6-carboxamide (Compound 63). The T cells cultured with our without Compound 63 were incubated overnight (approximately 24 hr) at 37° C., and were then transduced in serum-free culture media with our without Compound 63 ([…]) with a lentiviral vector encoding an anti-CD19 CAR. The CAR contained an scFv antigen-binding domain specific for CD19 (derived from FMC63), a CD28 transmembrane region, a 4-1BB costimulatory signaling region, and a CD3-zeta derived intracellular signaling domain. […]
To further assess the functional activity of the cells, the generated T cell compositions were stimulated long-term over 12 days with beads conjugated with an anti-idiotype (ID) antibody against the anti-CD19 CAR, and expansion and survival of the cells were monitored (FIG. 7F, left panel) and total expansion metric calculated by area under the curve (FIG. 7F, right panel).

mTOR = test: Intracellular S6 phosphorylation (marker of mTOR inhibition) in engineered T cells; assay type: cell-based, human; conditions: live CD8+ T cells; 1 μM at stimulation (1 mM printed for later steps)
Procedure: (§1) CD4+ and CD8+ T cells were isolated by immunoaffinity-based enrichment from leukapheresis samples from human donor subjects. […] The T cells cultured with our without Compound 63 were incubated overnight (approximately 24 hr) at 37° C., and were then transduced in serum-free culture media with our without Compound 63 ([…]) with a lentiviral vector encoding an anti-CD19 CAR. […] Following transduction, the cells were incubated in serum free media without recombinant cytokines (basal media) and with or without Compound 63 (1 mM) and allowed to incubate at about 37.0° C. in an incubator for up to 96 hours after initiation of the stimulation with the anti-CD3/anti-CD28 oligomeric stimulatory reagent (until day 5 of the process). […] The cryofrozen engineered CD4+ and CD8+ T cells were thawed, and T cells were assessed for intracellular S6 phosphorylation, a ribosomal protein and marker of mTOR inhibition, and co-stained for surface expression of CD4 or CD8 and for CCR7 and CD45RA as markers of memory subsets. pS6 expression in live CD8+ T cells by memory subsets was shown by the expression of CCR7 and CD45RA as shown in FIG. 6A. As shown, incubation with Compound 63 decreased the mean fluorescence intensity of stimulated memory T cell subsets, […], indicating an inhibition of mTOR, while having no significant effect on the percentage or total number of viable cells over time.

CD4+ and CD8+ T cells [1] = test: Caspase, CD27/CCR7 phenotype and intracellular cytokines of thawed engineered T cells; assay type: cell-based, human
Procedure: CD4+ and CD8+ T cells were isolated by immunoaffinity-based enrichment from leukapheresis samples from human donor subjects. At day 1, isolated CD4+ and CD8+ T cells were mixed 1:1 and stimulated with an anti-CD3/anti-CD28 oligomeric stimulatory reagent generated as described in Example 1 in serum-free media supplemented with recombinant IL-2 (100 IU/mL), recombinant IL-7 (600 IU/mL), and recombinant IL-15 (100 IU/mL) with or without 1 μM of 2-(3-hydroxyphenyl)-9-(2-isopropylphenyl)-8-oxo-8,9-dihydro-7H-purine-6-carboxamide (Compound 63). The T cells cultured with our without Compound 63 were incubated overnight (approximately 24 hr) at 37° C., and were then transduced in serum-free culture media with our without Compound 63 ([…]) with a lentiviral vector encoding an anti-CD19 CAR. The CAR contained an scFv antigen-binding domain specific for CD19 (derived from FMC63), a CD28 transmembrane region, a 4-1BB costimulatory signaling region, and a CD3-zeta derived intracellular signaling domain. Following transduction, the cells were incubated in serum free media without recombinant cytokines (basal media) and with or without Compound 63 (1 mM) and allowed to incubate at about 37.0° C. in an incubator for up to 96 hours after initiation of the stimulation with the anti-CD3/anti-CD28 oligomeric stimulatory reagent (until day 5 of the process). […] Following incubation CD4+ and CD8+ T cells from each donor were harvested, formulated, and cryofrozen.
Thawed cells generated by the process described were assessed for a marker of apoptosis (e.g., percentage of caspase positive CAR-T cells), phenotypic profile, and ability to produce intracellular cytokines following stimulation with PMA/Ionomycin and a Golgi Inhibitor. […] Thawed cells also were stained for surface expression of CD27 and CCR7 by flow cytometry.

CD4+ and CD8+ T cells [2] = test: Viability and live cell count of engineered T cell composition; assay type: cell-based, human; conditions: generated composition; produced with versus without compound
Procedure: as §1

[3] = biological target: Strep-Tactin® (mutein streptavidin, SEQ ID NO: 4) (Streptomyces avidinii, UniProt P22629, E68V/S69T/V71R); conditions: general statement of the description, no experiment of the applicant; read-out: binding affinity KD for binding to Strep-Tactin®; cited from earlier work
Strep-Tactin® (mutein streptavidin, SEQ ID NO: 4), sequence (P22629 other isoform, or with tags, fused parts or gaps E68V/S69T/V71R): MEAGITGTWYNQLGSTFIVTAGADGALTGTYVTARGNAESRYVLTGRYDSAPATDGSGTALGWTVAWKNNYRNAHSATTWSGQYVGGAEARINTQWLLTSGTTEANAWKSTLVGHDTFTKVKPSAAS

Row | Compound | function (expansion and survival) after long-term CAR-specific stimulation (anti-CD19 CAR T cells) | pS6 mean fluorescence intensity in memory T cell subsets (Temra, Tem, Tcm) (mTOR) | phenotypic subset profile by CD27 and/or CCR7 expression (CD4+ and CD8+ T cells [1]; CD8+ and CD4+ T cells) | level of intracellular cytokines IL2, IFNg, or TNF (CD4+ and CD8+ T cells [1]; after PMA/Ionomycin and Golgi inhibitor, CD8+ and CD4+ T cells) | intracellular caspase expression (CD4+ and CD8+ T cells [1]; thawed CAR-T cells, with versus without compound) | percent viable cells (CD4+ and CD8+ T cells [2]) | total live cells (CD4+ and CD8+ T cells [2]) | Kd [3]
1 | CC(C)c1ccccc1-n1c(=O)[nH]c2c(C(N)=O)nc(-c3cccc(O)c3)nc21 [Compound 63, 2-(3-hydroxyphenyl)-9-(2-isopropylphenyl)-8-oxo-8,9-dihydro-7H-purine-6-carboxamide] | improved function | decreased | did not substantially alter | substantially improved | less | did not impact | did not impact | –
2 | WSHPQFEK [Strep-Tag® II] | – | – | – | – | – | – | – | ~1000 nM

Reference: patent US12522660B2, “Methods for selection and stimulation of cells and apparatus for same” (C3S2 GMBH, priority 2018, dated 2026)
